One assay deals with BRD9 bromodomain (Homo sapiens (Human), UniProt Q9H8M2). Kind of assay: BRD9 bromodomain TR-FRET competition binding assay. The method, then:
Procedure: His-Flag-BRD9 (P133-K239; Swiss Prot Q9H8M2; SEQ ID NO:1 mgsshhhhhhenlyfq/gdykddddkgslevlfqg/[…] […]) was cloned, expressed, purified, and then treated with TEV protease. Cleaved His tag was removed by purification. The binding of a biotinylated small molecule ligand of BRD9 was assessed via the LANCE® TR-FRET platform (PerkinElmer), and the compounds were assayed for inhibitory activity against this interaction.
Results: A mixture of biotinylated-ligand and SureLight™ Allophycocyanin-Streptavidin (APC-SA, PerkinElmer AD0201) in 50 mM HEPES (pH 7.4), 50 mM NaCl, 1 mM TCEP (pH 7), 0.01% (v/v) Tween-20, 0.01% (w/v) bovine serum albumin was added to a white 384-well PerkinElmer Proxiplate Plus plate. DMSO or 3-fold serially diluted compounds were then added to the Proxiplate followed by addition of Flag-BRD9. After a 10-minute incubation at room temperature, Eu—W1024 anti-FLAG (PerkinElmer, AD0273) was added. The final reaction mixture that contained 3.75 nM biotinylated ligand, 3 nM Flag-BRD9, 7.5 nM SureLight™ Allophycocyanin-Streptavidin, and 0.2 nM Eu—W1024 anti-FLAG was incubated at room temperature for 90 minutes.
The plates were then read on a PerkinElmer Envision plate reader to determine the ratio of emission at 665 nm over 615 nm. […]

The target of assay [1] is Nanoluciferase-BRD9 fusion protein (3×FLAG-NLuc-BRD9) in SYO-1 cells (Homo sapiens (Human), UniProt Q9H8M2). Kind of assay: SYO1 BRD9 NanoLuc degradation assay. In kind it is cell-based. The following applies: SYO-1 cells, 6 hours, Table 6A. Summed up:
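Degradation read as loss of NLuc signal after 6 h compound exposure (1 μM top final, 3-fold steps, 10 points, duplicates) in SYO-1 cells stably carrying 3×FLAG-NLuc-BRD9. Signal normalised between DMSO-treated cells and cells given 1 μM of a known BRD9 degrader.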

The subject of assay [2] is synovial sarcoma cell lines (SYO1, HS-SY-II, and ASKA). Kind of assay: Crystal violet growth assay in synovial sarcoma cell lines, Example 4. The class given is cell-based. As to conditions: for inhibition of the growth of the cells: synovial sarcoma cell lines SYO1, HS-SY-II, ASKA, day 14. The method, then:
(§1) Procedure: Cells were seeded into 6-well or 12-well plates and were treated daily with a BRD9 degrader (Compound 1), a bromo-domain BRD9 binder (Compound 2), E3 ligase binder (lenalidomide), DMSO, or staurosporin (positive control for cell killing), at indicated concentrations. The number of cells was optimized for each cell line. Growth media was refreshed every 5 days. By day 14, medium was removed, cells were washed with PBS, and stained using 500 μL of 0.005% (w/v) crystal violet solution in 25% (v/v) methanol for at least 1 hour at room temperature. Subsequently plates were scanned on an Odyssey CLx Imaging system.

Assay [3] concerns non-synovial control cancer cell lines (293T, A549, G401). The assay is described as follows: Growth of non-synovial control cancer cell lines, Example 3. In kind it is cell-based. As for the experimental part: (§2) Cells were treated with DMSO or the BRD9 degrader, Compound 1, at indicated concentrations, and proliferation was monitored from day 7 to day 14 by measuring confluency over time using an IncuCyte live cell analysis system (FIG. 5). Growth medium and compounds were refreshed every 3-4 days.
(§3) Cells were seeded into 12-well plates and treated with DMSO, 1 μM BRD9 inhibitor, Compound 2 (also known as BI-7273, see Martin et al, J Med Chem. 59(10):4462-4475 (2016); see structure of compound 2 below), or 1 μM BRD9 degrader, Compound 1.
(§4) The number of cells was optimized for each cell line. Growth medium and compounds were refreshed every 3-5 days. SYO1, Yamato, A549, 293T and HS-SY-II cells were fixed and stained at day 11. ASKA cells were fixed and stained at day 23. Staining was done by incubation with crystal violet solution (0.5 g Crystal Violet, 27 ml 37% Formaldehyde, 100 mL 10×PBS, 10 mL Methanol, 863 dH20 to 1 L) for 30 min followed by 3× washes with water and drying the plates for at least 24 h at room temperature. Subsequently plates were scanned on an Odyssey CLx Imaging system (FIG. 6).
(§5) Cells were seeded into 96-well ultra low cluster plate (Costar, #7007) in 200 μL complete media and treated at day 2 with DMSO, Staurosporin, or BRD9 degarder, Compound 1, at indicated doses (FIG. 3C). Media and compounds were changed every 5 d and cell colonies were imaged at day 14.

Assay [4] relates to non-synovial control cancer cell lines (RD, HCT116, and Calu6). Kind of assay: Crystal violet growth assay in non-synovial control cancer cell lines, Example 4. In kind it is cell-based. As to conditions: day 14. The method, then: as §1
The test system of assay [5] is synovial sarcoma cell lines (SYO1, Yamato, HS-SY-II, and ASKA). Kind of assay: Growth of synovial sarcoma cell lines (IncuCyte confluency, crystal violet, colony imaging), Example 3. In kind it is cell-based. As for the experimental part:
as §2, §3, §4, §5

The test system of assay [6] is SYO1 cells. The assay is described as follows: Cell cycle analysis (Click-iT Plus EdU Flow Cytometry Assay). The class given is cell-based. The following applies: 200 nM or 1 μM, 8 or 13 days, as compared to DMSO and lenalidomide. As for the experimental part: (§6) Procedure: SYO1 cells were treated for 8 or 13 days with DMSO, a BRD9 degrader (Compound 1) at 200 nM or 1 μM, or an E3 ligase binder (lenalidomide) at 200 nM. Compounds were refreshed every 5 days. Cell cycle analysis was performed using the Click-iT™ Plus EdU Flow Cytometry Assay (Invitrogen). The apoptosis assay was performed using the Annexin V-FITC Apoptosis Detection Kit (Sigma A9210). Assays were performed according to the manufacturer's protocol.

In assay [7] the test system is SYO1 cells. The assay is described as follows: Apoptosis assay (Annexin V-FITC Apoptosis Detection Kit). As to conditions: 200 nM or 1 μM, 8 days, as compared to DMSO controls. In kind it is cell-based. The method, then:
as §6

Sequence of BRD9 bromodomain (Q9H8M2 133-239): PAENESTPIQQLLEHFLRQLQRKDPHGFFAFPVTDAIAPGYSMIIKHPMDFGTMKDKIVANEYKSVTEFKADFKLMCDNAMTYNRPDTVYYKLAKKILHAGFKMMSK
Sequence of Nanoluciferase-BRD9 fusion protein (3×FLAG-NLuc-BRD9) in SYO-1 cells (Q9H8M2 whole entry, the tested form may be a part): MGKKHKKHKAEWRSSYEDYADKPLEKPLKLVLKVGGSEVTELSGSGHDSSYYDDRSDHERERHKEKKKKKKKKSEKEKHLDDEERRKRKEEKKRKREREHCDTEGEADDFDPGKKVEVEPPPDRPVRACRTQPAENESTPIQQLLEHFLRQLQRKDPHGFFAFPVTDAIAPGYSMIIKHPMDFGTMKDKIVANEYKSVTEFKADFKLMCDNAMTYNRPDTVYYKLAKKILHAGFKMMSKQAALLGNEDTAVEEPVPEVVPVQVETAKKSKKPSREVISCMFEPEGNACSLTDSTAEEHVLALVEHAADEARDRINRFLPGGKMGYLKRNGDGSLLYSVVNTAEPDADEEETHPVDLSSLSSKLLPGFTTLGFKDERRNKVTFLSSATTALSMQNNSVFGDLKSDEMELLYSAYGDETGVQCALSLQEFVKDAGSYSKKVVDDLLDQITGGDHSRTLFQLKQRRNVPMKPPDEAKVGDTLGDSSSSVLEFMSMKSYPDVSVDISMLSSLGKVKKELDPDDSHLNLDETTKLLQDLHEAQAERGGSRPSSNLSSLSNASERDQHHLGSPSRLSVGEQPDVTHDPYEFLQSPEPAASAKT

Turning to `CNC(=O)N1CCc2c(-c3cc(OC)c(CN4CCC5(CC4)CN(C(=O)CCCCOc4ccc6c(c4)C(=O)N(C4CCC(=O)NC4=O)C6=O)CCO5)c(OC)c3)cn(C)c(=O)c2C1` (stereo not shown) [Compound D31, 5-(4-((4-(5-((2-(2,6-dioxopiperidin-3-yl)-1,3-dioxoisoindolin-5-yl)oxy)pentanoyl)-1-oxa-4,9-diazaspiro[5.5]undecan-9-yl)methyl)-3,5-dimethoxyphenyl)-N,7-dimethyl-8-oxo-3,4,7,8-tetrahydro-2,7-naphthyridine-2 (1H)-carboxamide formic acid], the values for the concentration for half-maximal inhibition (IC50) (on BRD9 bromodomain; in assay [1]) were below 10 nM and above 10 nM, respectively.

As to `COc1cc(-c2cn(C)c(=O)c3c2CCN(C(=O)NCCN(C)CCOCCOc2cccc4c2C(=O)N(C2CCC(=O)NC2=O)C4=O)C3)cc(OC)c1CN(C)C` (stereo not shown) [Compound D30, 5-[4-[(dimethylamino)methyl]-3,5-dimethoxyphenyl]-N-(2-[[2-(2-[[2-(2,6-dioxopiperidin-3-yl)-1,3-dioxoisoindol-4-yl]oxy]ethoxy)ethyl](methyl)amino]ethyl)-7-methyl-8-oxo-3,4-dihydro-1H-2,7-naphthyridine-2-carboxamide formic acid], the results for the 50% inhibitory concentration (IC50) (on BRD9 bromodomain; in assay [1]) were above 100 nM and above 1000 nM, respectively.

With `COc1cc(-c2cn(C)c(=O)c3cnccc23)cc(OC)c1CN(C)C` [Compound 2], the “inhibition of the growth of the cells” value in assay [2] is listed as “inhibition of the growth of the cells”; in assay [3] it was “does not result in inhibition of the growth”; in assay [4], “did not result in inhibition of the growth”; in assay [5] it was “inhibition of the growth of the cells”.

`CNC(=O)N1CCc2c(-c3cc(OC)c(CN4CC(NC(=O)CCCCCOc5cccc6c5C(=O)N(C5CCC(=O)NC5=O)C6=O)C4)cc3OC)cn(C)c(=O)c2C1` (stereo not shown) [Compound D15, 5-(4-[[3-(6-[[2-(2,6-Dioxopiperidin-3-yl)-1,3-dioxoisoindol-4-yl]oxy]hexanamido)azetidin-1-yl]methyl]-2,5-dimethoxyphenyl)-N,7-dimethyl-8-oxo-3,4-dihydro-1H-2,7-naphthyridine-2-carboxamide formic acid]: the IC50 at BRD9 bromodomain was above 10 nM; in assay [1], above 100 nM.

With `COc1cc(-c2cn(C)c(=O)c3c2CCN(C(=O)NCCCCCOc2ccc4c(c2)C(=O)N(C2CCC(=O)NC2=O)C4=O)C3)cc(OC)c1CN(C)C` (stereo not shown) [Compound D22, formic acid], the half-inhibitory concentration (IC50) (at BRD9 bromodomain; in assay [1]) was below 10 nM in each case.

Regarding `COc1cc(-c2cn(C)c(=O)c3c2CCN(C(=O)NCCOCCNc2ccc4c(c2)C(=O)N(C2CCC(=O)NC2=O)C4=O)C3)c(OC)cc1CN(C)C` (stereo not shown) [Compound D32, 5-[4-[(dimethylamino)methyl]-2,5-dimethoxyphenyl]-N-[2-(2-[[2-(2,6-dioxopiperidin-3-yl)-1,3-dioxoisoindol-5-yl]amino]ethoxy)ethyl]-7-methyl-8-oxo-3,4-dihydro-1H-2,7-naphthyridine-2-carboxamide formic acid], the IC50 (on BRD9 bromodomain; in assay [1]) was above 100 nM each time.

With `COc1cc(-c2cn(C)c(=O)c3c2CCN(C(=O)NCCOCCNc2cccc4c2C(=O)N(C2CCC(=O)NC2=O)C4=O)C3)cc(OC)c1CN(C)C` (stereo not shown) [Compound D17, 5-[4-[(dimethylamino)methyl]-3,5-dimethoxyphenyl]-N-[2-(2-[[2-(2,6-dioxopiperidin-3-yl)-1,3-dioxoisoindol-4-yl]amino]ethoxy)ethyl]-7-methyl-8-oxo-3,4-dihydro-1H-2,7-naphthyridine-2-carboxamide formic acid], the IC50 (at BRD9 bromodomain; in assay [1]) was above 10 nM each time.

Turning to `COc1cc(-c2cn(C)c(=O)c3c2CN(C(=O)N(C)C)CC3)cc(OC)c1CN(C)CCOCCN1CCN(c2ccc3c(c2)C(=O)N(C2CCC(=O)NC2=O)C3=O)CC1` (stereo not shown) [Compound D33, 8-(4-(((2-(2-(4-(2-(2,6-dioxopiperidin-3-yl)-1,3-dioxoisoindolin-5-yl)piperazin-1-yl)ethoxy)ethyl)(methyl)amino)methyl)-3,5-dimethoxyphenyl)-N,N,6-trimethyl-5-oxo-3,4,5,6-tetrahydro-2,6-naphthyridine-2 (1H)-carboxamide formic acid], the IC50 is above 10 nM on BRD9 bromodomain and above 1000 nM in assay [1].

For the molecule `COc1cc(-c2cn(C)c(=O)c3cnccc23)cc(OC)c1CN(C)CC(=O)NCCOCCOCCNc1cccc2c1C(=O)N(C1CCC(=O)NC1=O)C2=O` (stereo not shown) [Compound 1], the “numbers of cells in the S-phase of the cell cycle” value with SYO1 cells [6] is recorded as “reduced numbers of cells in the S-phase”. Moreover, the “growth inhibition compared with the other treatments” value in assay [2] (all synovial cell lines) is listed as “most significant growth inhibition”. For the same molecule, the “inhibition of the growth of the cells” value is “inhibition of the growth of the cells” in assay [2], “does not result in inhibition of the growth” in assay [3], “did not result in inhibition of the growth” in assay [4] and “inhibition of the growth of the cells” in assay [5]. Also, in the assay on SYO1 cells [7], the “numbers of early- and late-apoptotic cells” value is “increased numbers of early- and late-apoptotic cells”.

The values above are taken from patent US12384776B2, “Compounds and uses thereof” (Foghorn Therapeutics Inc., priority 2019, dated 2025).
